Test results published in patent US20220289732A1, “HETEROCYCLIC WDR5 INHIBITORS AS ANTI-CANCER COMPOUNDS” (NOVARTIS AG, priority 2019, published 2022).

Tests used:
[1] = test system: MV4-11 cells; experiment: MV4-11 6-day cell growth CTG (CellTiter-Glo) assay; assay type: cell-based; details: Homo sapiens, MV4-11, 144 h, 6 days, read-out: (c) MLL/WDR5 cell proliferation assay//MLL/WDR5 proliferation MV4:11 Qualified AC50
In short: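 Exponentially growing MV4-11 AML cells (RPMI 1640, 10% FBS) seeded at 300 cells/well with 12-point 1:3 compound dilutions, top final concentration 50 μM. Viability read by CellTiter-Glo luminescence after 6 days at 37° C; % inhibition vs DMSO-only wells fitted to dose-response for IC50.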

[2] = molecular target: wild type MLL1 four-member complex (MLL1-4C) (Homo sapiens, UniProt P61964); experiment: MLL1 LC-MS assay (SAH production); assay type: biochemical; details: read-out: (b) MLL LCMS Peptide Val.v.1 Qualified AC50
In short: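 MLL1-4C (30 nM final) was preincubated 20 min with compound (3-fold dilutions, 8 or 12 points) and SAM in Tris-HCl pH 8.0 buffer. H3K4me0 peptide (histone H3[1-21]-biotin) was then added, giving final 2.5 μM SAM and 10 μM substrate, and reactions ran 120 min at rt. After TFA/d4-SAH quench, SAH was quantified by LC-MS/MS and IC50 fitted from control-normalised activity.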

[3] = molecular target: WDR5 (Homo sapiens, UniProt P61964); experiment: WDR5 HTRF binding assay; details: read-out: (a) WDR5 HTRF Pep Val v.1[Inhibitor/IC50]Qualified AC50
In short: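 6 nM WDR5 and 20 nM biotin-MLL1 WIN peptide (3762-3773) were incubated with compound (12-point, 3-fold dilutions) in pH 7.5 Hepes/NaCl/DTT buffer for 20 min at rt. Streptavidin-APC plus anti-His-Eu were then added for 1 hr, with HTRF read at 665/615. IC50 was fit from control-normalized activity; the counter assay used 15 nM biotin-PEG-His peptide.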

Compound | AC50 [1] [nM] | AC50 [2] [nM] | IC50 [3] [nM]
CCOc1cc(CN2CCc3c(cc(CCN4CC[C@H]4C)cc3-c3ccc(F)nc3C)C2=O)ncc1C#N [Example 245] | 10 to 1000 | 10 to 1000 | 10 to 1000
CCOc1cc([C@H](C)N2CCc3c(cc(CCN(C)CC(C)O)cc3-c3cc(C)cnc3C)C2=O)ncc1C#N (stereo partly drawn) [Example 246] | 10 to 1000 | 10 to 1000 | 10 to 1000
CCOc1cc([C@H](C)N2CCc3c(cc(CCN(C)CCF)cc3-c3ccc(F)nc3C)C2=O)ncc1C#N [Example 247] | 10 to 1000 | 10 to 1000 | 10 to 1000
CCOc1cc(C(C)N2CCc3c(cc(CCN(C)CCF)cc3-c3cc(C)ncc3C)C2=O)ncc1C#N (stereo not drawn) [Example 248] | 10 to 1000 | 10 to 1000 | 10 to 1000
CCOc1cc([C@H](C)N2CCc3c(cc(CCN4CC(F)C4)cc3-c3cn(C)c(=O)cc3C(F)(F)F)C2=O)ncc1C#N [Example 249] | 10 to 1000 | 10 to 1000 | 10 to 1000
CCOc1cc([C@H](C)N2CCc3c(cc(CCN(C)CCO)cc3-c3cc(C)ncc3C)C2=O)ncc1C#N [Example 250] | 10 to 1000 | 10 to 1000 | 10 to 1000
CCOc1cc([C@H](C)N2CCc3c(cc(CCN(C)CCF)cc3-c3cn(C)c(=O)cc3Cl)C2=O)ncc1C#N [Example 251] | 10 to 1000 | 10 to 1000 | 10 to 1000
CCOc1cc([C@H](C)N2CCc3c(cc(CCN(C)CCO)cc3-c3ccc(F)nc3C)C2=O)ncc1C#N [Example 252] | 10 to 1000 | 10 to 1000 | 10 to 1000
CCOc1cc([C@H](C)N2CCc3c(cc(CCN(C)C4COC4)cc3-c3ccc(F)nc3C)C2=O)ncc1C#N [Example 253] | 10 to 1000 | 10 to 1000 | 10 to 1000
CCOc1cc([C@H](C)N2CCc3c(cc(CCN(C)CCF)cc3-c3cc(C)ncc3C)C2=O)ncc1C#N [Example 254] | 10 to 1000 | 10 to 1000 | 10 to 1000
COc1cc(CN2CCc3c(cc(CCN(C)C)cc3-c3cn(C)nc3C(F)(F)F)C2=O)ccc1F [Example 255] | 1000 to 25000 | 10 to 1000 | 10 to 1000
CCOc1cc([C@H](C)N2CCc3c(cc(CCN(C)CC)cc3C(O)C(C)C)C2=O)ncc1C#N (stereo partly drawn) [Example 256, 4-ethoxy-6-((1S)-1-(7-(2-(ethyl(methyl)amino)ethyl)-5-(1-hydroxy-2-methylpropyl)-1-oxo-3,4-dihydroisoquinolin-2(1H)-yl)ethyl)nicotinonitrile] | 10 to 1000 | 10 to 1000 | 10 to 1000
CCOc1cc(C(C)N2CCc3c(cc(CCN(C)CC)cc3C(O)C(C)C(F)(F)F)C2=O)ncc1C#N (stereo not drawn) [Example 258, 4-ethoxy-6-(1-(7-(2-(ethyl(methyl)amino)ethyl)-1-oxo-5-(3,3,3-trifluoro-1-hydroxy-2-methylpropyl)-3,4-dihydroisoquinolin-2(1H)-yl)ethyl)nicotinonitrile] | 10 to 1000 | 10 to 1000 | < 10
CCOc1cc(C(C)N2CCc3c(cc(CCN(C)CC)cc3C(O)C(F)(F)F)C2=O)ncc1C#N (stereo not drawn) [Example 259, 4-ethoxy-6-(1-(7-(2-(ethyl(methyl)amino)ethyl)-1-oxo-5-(2,2,2-trifluoro-1-hydroxyethyl)-3,4-dihydroisoquinolin-2(1H)-yl)ethyl)nicotinonitrile] | 10 to 1000 | 10 to 1000 | < 10
CCOc1cc(CN2CCc3c(cc(Cn4ccnc4C)cc3-c3cn(C)nc3C)C2=O)ncc1C#N [Example 263, 6-((5-(1,3-Dimethyl-1H-pyrazol-4-yl)-7-((2-methyl-1H-imidazol-1-yl)methyl)-1-oxo-3,4-dihydroisoquinolin-2(1H)-yl)methyl)-4-ethoxynicotinonitrile] | 10 to 1000 | 10 to 1000 | 10 to 1000
